According to ChEMBL document CHEMBL1201862, “PubChem BioAssay data set” (2004):
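Five concentrations, 48 hours, 96-well plates. GI50 is the concentration that inhibits growth by half.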 Activity calls are given as the source filed them. Rule as the data show it: active = GI50 up to about 1.1 µM and inactive = higher.

Experiments:
Test in all cases: DTP human tumour cell line panel, 48 h
A498 = system: A498
BT-549 = system: BT-549
CCRF-CEM = system: CCRF-CEM
DU-145 = system: DU-145
HCT-116 = system: HCT-116
HOP-92 = system: HOP-92
HT-29 = system: HT-29
Hs-578T = system: Hs-578T
M14 = system: M14
NCI-H23 = system: NCI-H23
NCI-H460 = system: NCI-H460
NCI/ADR-RES = system: NCI/ADR-RES
OVCAR-5 = system: OVCAR-5
RXF 393 = system: RXF 393
SF-268 = system: SF-268
SN12C = system: SN12C
T47D = system: T47D
U-251 = system: U-251
HL-60 = system: HL-60
MCF7 = system: MCF7

| SMILES | GI50 (A498) | GI50 (BT-549) | GI50 (CCRF-CEM) | GI50 (DU-145) | GI50 (HCT-116) | GI50 (HOP-92) | GI50 (HT-29) | GI50 (Hs-578T) | GI50 (M14) | GI50 (NCI-H23) | GI50 (NCI-H460) | GI50 (NCI/ADR-RES) | GI50 (OVCAR-5) | GI50 (RXF 393) | GI50 (SF-268) | GI50 (SN12C) | GI50 (T47D) | GI50 (U-251) | GI50 (HL-60) | GI50 (MCF7) |
| --- | --- | --- | --- | --- | --- | --- | --- | --- | --- | --- | --- | --- | --- | --- | --- | --- | --- | --- | --- | --- |
| CN(C)CN1CSC(=S)N(CN(C)C)C1 | > 100 µM (inactive) | > 100 µM (inactive) | 8.15 µM (inactive) | > 100 µM (inactive) | > 100 µM (inactive) | > 100 µM (inactive) | > 100 µM (inactive) | > 100 µM (inactive) | > 100 µM (inactive) | > 100 µM (inactive) | 42.6 µM (inactive) | > 100 µM (inactive) | > 100 µM (inactive) | > 100 µM (inactive) | > 100 µM (inactive) | > 100 µM (inactive) | > 100 µM (inactive) | 32.3 µM (inactive) |  |  |
| CC1=C2C3=C(C)C(=O)C(C)(C)CC[C@@]3(C)[C@]2(C)CCC(C)(C)C1=O | > 100 µM (inactive) | > 100 µM (inactive) | > 100 µM (inactive) | > 100 µM (inactive) | > 100 µM (inactive) |  | > 100 µM (inactive) | > 100 µM (inactive) | > 100 µM (inactive) | > 100 µM (inactive) |  | > 100 µM (inactive) | > 100 µM (inactive) | > 100 µM (inactive) | > 100 µM (inactive) | > 100 µM (inactive) | > 100 µM (inactive) | > 100 µM (inactive) | > 100 µM (inactive) | > 100 µM (inactive) |
| Cc1ccc(S(=O)(=O)c2[nH]cc(/C(=C\C3CCCCC3)[N+](=O)[O-])c2C2CCCCC2)cc1 |  | 0.28 µM (active) | 0.272 µM (active) | 0.596 µM (active) | 0.216 µM (active) | 0.292 µM (active) | 0.497 µM (active) | 0.324 µM (active) | 0.236 µM (active) | 0.542 µM (active) | 1.22 µM (inactive) | 0.426 µM (active) | 0.822 µM (active) | 0.196 µM (active) | 0.414 µM (active) | 0.211 µM (active) | 0.303 µM (active) | 0.653 µM (active) |  |  |
| C[C@@H](c1ccccc1)N1CN(C(=O)OCc2ccccc2)C(C)(C)CC1=O |  | > 100 µM (inactive) | > 100 µM (inactive) | > 100 µM (inactive) | > 100 µM (inactive) | > 100 µM (inactive) | > 100 µM (inactive) | > 100 µM (inactive) | > 100 µM (inactive) | > 100 µM (inactive) | > 100 µM (inactive) | > 100 µM (inactive) | > 100 µM (inactive) | 15.5 µM (inactive) | > 100 µM (inactive) | > 100 µM (inactive) | 50.6 µM (inactive) | > 100 µM (inactive) | 66.8 µM (inactive) | > 100 µM (inactive) |
| Cc1nn(C(=O)c2ccncc2)c2c1C(c1ccccc1[N+](=O)[O-])SC(=N)N2 (stereo unspecified) |  | > 10 µM (inactive) | 8.24 µM (inactive) | > 10 µM (inactive) | > 10 µM (inactive) | > 10 µM (inactive) | > 10 µM (inactive) | > 10 µM (inactive) | > 10 µM (inactive) | > 10 µM (inactive) | > 10 µM (inactive) | > 10 µM (inactive) | > 10 µM (inactive) | > 10 µM (inactive) | > 10 µM (inactive) | > 10 µM (inactive) | > 10 µM (inactive) |  | > 10 µM (inactive) | > 10 µM (inactive) |
| CCCCCC/C=C\CCCCCCCCCc1cccc(OC)c1O | 41.2 µM (inactive) | > 100 µM (inactive) | > 100 µM (inactive) | > 100 µM (inactive) | 44.2 µM (inactive) |  | > 100 µM (inactive) | > 100 µM (inactive) | > 100 µM (inactive) | 86.9 µM (inactive) |  | 41.2 µM (inactive) | > 100 µM (inactive) | 67.6 µM (inactive) | > 100 µM (inactive) | > 100 µM (inactive) | > 100 µM (inactive) | > 100 µM (inactive) | > 100 µM (inactive) | 75.5 µM (inactive) |
| CC(C)=CCC/C(C)=C/COc1c2ccoc2cc2oc(=O)ccc12 [BERGAMOTTIN] | 23.1 µM (inactive) | 44.3 µM (inactive) | 18 µM (inactive) |  | 23.8 µM (inactive) | 50.2 µM (inactive) | 19.7 µM (inactive) | 48.1 µM (inactive) | 27.7 µM (inactive) | 27.4 µM (inactive) | 29.9 µM (inactive) | 35 µM (inactive) | 23.8 µM (inactive) |  | 54.1 µM (inactive) | 38.3 µM (inactive) | 19.3 µM (inactive) | 20.6 µM (inactive) | 16.4 µM (inactive) | 19.1 µM (inactive) |
